# Results taken from paper PMC8596578, “Structural Basis for The Recognition of Deaminated Nucleobases by An Archaeal DNA Polymerase” (Chembiochem, 2021).
# Target: T1, KOD DNA polymerase (exonuclease deficient mutant D141A, E143A) (Thermococcus kodakarensis, UniProt P77933, D141A/E143A)
# T1 construct: gene pol; exonuclease-deficient polymerase, codon-optimized, pET24a (NdeI/NotI), E. coli BL21(DE3); intein-free mature protein
# Test: X-ray crystal structure of closed ternary complex
# Type: binding
# Details: primer/template DNA (21 nt template, with canonical bases in KOD-21nt or uracil at +6 in KOD-U); polymerase active site, Mg2+ and Mn2+; pH 7.5 (KOD-21nt) or 6.5 (KOD-U)
smiles,measurement,value
Nc1ncnc2c1ncn2[C@H]1C[C@H](O)[C@@H](COP(=O)(O)OP(=O)(O)OP(=O)(O)O)O1 [dATP],X-ray crystal structure of closed ternary complex,"closed ternary complex, with dATP and three metal ions"
